Seven molecules from ChEMBL document CHEMBL4265983, “Discovery and biological evaluation of thiobarbituric derivatives as potent p300/CBP inhibitors” (Bioorg Med Chem, 2018) can be followed below.

The target of assay [1] is Histone acetyltransferase KAT5 (Homo sapiens, UniProt Q92993). The assay is described as follows: Inhibition of Tip60 (unknown origin).
Assay [2] addresses Histone acetyltransferase p300 (Homo sapiens, UniProt Q09472). The assay is described as follows: Inhibition of p300 (unknown origin) using human histone as substrate measured after 60 mins in presence of [3H]-acetyl-CoA by microbeta counting method.
For assay [3], the system named is MV4-11. The assay is described as follows: Antiproliferative activity against human MV4-11 cells after 72 hrs by CellTiter-Glo assay. The following applies: MV4-11, 72 h.
The target in assay [4] is T1, CREB-binding protein/Histone acetyltransferase p300 (Homo sapiens) (UniProt Q09472+Q92793). As to the kind of experiment: Inhibition of P300/CBP acetyl transferase activity in human MV4-11 cells assessed as reduction in acetylated H3K18 levels at 2.2 to 60 uM after 24 hrs in presence of SAHA by Western blot analysis. The assay is classed as cell-based.
T1 sequence (Q09472 whole entry, looked up): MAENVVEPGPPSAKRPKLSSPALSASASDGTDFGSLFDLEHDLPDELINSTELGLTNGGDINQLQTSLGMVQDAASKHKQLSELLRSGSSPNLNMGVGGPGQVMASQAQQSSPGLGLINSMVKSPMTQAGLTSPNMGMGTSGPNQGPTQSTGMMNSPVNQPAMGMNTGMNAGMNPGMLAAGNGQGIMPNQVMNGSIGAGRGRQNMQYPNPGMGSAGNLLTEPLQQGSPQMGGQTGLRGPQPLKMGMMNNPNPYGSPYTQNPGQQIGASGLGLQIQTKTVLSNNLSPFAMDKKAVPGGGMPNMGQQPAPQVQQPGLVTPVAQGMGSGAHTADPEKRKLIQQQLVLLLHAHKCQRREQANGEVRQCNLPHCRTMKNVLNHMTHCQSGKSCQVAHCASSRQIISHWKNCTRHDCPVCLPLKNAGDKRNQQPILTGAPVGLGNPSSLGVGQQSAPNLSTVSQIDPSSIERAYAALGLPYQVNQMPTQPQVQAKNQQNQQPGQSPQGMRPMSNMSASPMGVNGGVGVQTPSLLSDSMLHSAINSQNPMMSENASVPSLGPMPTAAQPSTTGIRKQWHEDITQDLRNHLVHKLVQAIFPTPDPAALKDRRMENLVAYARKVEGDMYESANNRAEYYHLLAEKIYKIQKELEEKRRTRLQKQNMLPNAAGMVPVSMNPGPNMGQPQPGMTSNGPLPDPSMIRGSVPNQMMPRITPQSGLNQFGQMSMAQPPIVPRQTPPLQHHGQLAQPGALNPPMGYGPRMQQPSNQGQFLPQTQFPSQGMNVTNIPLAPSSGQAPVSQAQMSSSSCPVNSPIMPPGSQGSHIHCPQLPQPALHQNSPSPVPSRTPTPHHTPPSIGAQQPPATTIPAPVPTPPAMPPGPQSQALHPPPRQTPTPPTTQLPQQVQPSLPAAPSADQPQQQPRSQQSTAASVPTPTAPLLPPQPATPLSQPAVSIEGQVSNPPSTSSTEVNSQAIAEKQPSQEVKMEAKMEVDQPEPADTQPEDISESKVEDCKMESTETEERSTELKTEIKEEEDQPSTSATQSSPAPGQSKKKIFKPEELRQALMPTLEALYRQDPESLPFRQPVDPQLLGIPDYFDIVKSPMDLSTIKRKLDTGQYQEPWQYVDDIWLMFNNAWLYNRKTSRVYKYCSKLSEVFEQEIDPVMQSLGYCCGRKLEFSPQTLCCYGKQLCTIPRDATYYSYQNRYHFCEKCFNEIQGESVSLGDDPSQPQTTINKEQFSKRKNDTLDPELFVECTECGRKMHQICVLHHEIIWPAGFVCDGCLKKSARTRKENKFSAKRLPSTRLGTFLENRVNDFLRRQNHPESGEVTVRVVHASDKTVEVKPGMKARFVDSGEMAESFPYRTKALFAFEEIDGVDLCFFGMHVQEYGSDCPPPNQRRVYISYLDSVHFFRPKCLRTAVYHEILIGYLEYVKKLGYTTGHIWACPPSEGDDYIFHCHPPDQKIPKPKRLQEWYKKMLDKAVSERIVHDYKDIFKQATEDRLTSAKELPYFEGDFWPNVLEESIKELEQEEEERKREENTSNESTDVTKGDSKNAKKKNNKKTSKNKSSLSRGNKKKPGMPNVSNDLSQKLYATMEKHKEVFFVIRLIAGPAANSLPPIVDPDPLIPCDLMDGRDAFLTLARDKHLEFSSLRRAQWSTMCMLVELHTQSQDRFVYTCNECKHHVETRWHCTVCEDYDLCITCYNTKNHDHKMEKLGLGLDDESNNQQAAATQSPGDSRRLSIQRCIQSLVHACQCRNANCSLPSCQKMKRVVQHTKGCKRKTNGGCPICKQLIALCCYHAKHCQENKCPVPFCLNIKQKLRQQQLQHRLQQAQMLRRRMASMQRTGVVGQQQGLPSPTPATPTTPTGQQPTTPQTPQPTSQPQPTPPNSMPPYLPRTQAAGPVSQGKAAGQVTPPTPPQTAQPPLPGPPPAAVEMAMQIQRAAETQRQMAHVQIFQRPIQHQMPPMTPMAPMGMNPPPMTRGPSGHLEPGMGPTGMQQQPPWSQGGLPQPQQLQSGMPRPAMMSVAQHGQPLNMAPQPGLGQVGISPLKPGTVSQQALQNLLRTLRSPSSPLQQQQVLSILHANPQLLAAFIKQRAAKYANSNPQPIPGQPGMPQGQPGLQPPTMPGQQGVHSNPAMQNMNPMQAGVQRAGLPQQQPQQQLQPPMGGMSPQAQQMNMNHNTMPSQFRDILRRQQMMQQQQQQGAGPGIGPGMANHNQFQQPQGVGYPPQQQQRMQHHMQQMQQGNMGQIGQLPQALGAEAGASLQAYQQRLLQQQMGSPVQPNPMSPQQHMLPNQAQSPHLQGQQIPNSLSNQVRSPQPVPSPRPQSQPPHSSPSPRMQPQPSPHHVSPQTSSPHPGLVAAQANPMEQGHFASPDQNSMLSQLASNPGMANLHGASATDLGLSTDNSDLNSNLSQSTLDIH
T1 sequence (Q92793 whole entry, looked up): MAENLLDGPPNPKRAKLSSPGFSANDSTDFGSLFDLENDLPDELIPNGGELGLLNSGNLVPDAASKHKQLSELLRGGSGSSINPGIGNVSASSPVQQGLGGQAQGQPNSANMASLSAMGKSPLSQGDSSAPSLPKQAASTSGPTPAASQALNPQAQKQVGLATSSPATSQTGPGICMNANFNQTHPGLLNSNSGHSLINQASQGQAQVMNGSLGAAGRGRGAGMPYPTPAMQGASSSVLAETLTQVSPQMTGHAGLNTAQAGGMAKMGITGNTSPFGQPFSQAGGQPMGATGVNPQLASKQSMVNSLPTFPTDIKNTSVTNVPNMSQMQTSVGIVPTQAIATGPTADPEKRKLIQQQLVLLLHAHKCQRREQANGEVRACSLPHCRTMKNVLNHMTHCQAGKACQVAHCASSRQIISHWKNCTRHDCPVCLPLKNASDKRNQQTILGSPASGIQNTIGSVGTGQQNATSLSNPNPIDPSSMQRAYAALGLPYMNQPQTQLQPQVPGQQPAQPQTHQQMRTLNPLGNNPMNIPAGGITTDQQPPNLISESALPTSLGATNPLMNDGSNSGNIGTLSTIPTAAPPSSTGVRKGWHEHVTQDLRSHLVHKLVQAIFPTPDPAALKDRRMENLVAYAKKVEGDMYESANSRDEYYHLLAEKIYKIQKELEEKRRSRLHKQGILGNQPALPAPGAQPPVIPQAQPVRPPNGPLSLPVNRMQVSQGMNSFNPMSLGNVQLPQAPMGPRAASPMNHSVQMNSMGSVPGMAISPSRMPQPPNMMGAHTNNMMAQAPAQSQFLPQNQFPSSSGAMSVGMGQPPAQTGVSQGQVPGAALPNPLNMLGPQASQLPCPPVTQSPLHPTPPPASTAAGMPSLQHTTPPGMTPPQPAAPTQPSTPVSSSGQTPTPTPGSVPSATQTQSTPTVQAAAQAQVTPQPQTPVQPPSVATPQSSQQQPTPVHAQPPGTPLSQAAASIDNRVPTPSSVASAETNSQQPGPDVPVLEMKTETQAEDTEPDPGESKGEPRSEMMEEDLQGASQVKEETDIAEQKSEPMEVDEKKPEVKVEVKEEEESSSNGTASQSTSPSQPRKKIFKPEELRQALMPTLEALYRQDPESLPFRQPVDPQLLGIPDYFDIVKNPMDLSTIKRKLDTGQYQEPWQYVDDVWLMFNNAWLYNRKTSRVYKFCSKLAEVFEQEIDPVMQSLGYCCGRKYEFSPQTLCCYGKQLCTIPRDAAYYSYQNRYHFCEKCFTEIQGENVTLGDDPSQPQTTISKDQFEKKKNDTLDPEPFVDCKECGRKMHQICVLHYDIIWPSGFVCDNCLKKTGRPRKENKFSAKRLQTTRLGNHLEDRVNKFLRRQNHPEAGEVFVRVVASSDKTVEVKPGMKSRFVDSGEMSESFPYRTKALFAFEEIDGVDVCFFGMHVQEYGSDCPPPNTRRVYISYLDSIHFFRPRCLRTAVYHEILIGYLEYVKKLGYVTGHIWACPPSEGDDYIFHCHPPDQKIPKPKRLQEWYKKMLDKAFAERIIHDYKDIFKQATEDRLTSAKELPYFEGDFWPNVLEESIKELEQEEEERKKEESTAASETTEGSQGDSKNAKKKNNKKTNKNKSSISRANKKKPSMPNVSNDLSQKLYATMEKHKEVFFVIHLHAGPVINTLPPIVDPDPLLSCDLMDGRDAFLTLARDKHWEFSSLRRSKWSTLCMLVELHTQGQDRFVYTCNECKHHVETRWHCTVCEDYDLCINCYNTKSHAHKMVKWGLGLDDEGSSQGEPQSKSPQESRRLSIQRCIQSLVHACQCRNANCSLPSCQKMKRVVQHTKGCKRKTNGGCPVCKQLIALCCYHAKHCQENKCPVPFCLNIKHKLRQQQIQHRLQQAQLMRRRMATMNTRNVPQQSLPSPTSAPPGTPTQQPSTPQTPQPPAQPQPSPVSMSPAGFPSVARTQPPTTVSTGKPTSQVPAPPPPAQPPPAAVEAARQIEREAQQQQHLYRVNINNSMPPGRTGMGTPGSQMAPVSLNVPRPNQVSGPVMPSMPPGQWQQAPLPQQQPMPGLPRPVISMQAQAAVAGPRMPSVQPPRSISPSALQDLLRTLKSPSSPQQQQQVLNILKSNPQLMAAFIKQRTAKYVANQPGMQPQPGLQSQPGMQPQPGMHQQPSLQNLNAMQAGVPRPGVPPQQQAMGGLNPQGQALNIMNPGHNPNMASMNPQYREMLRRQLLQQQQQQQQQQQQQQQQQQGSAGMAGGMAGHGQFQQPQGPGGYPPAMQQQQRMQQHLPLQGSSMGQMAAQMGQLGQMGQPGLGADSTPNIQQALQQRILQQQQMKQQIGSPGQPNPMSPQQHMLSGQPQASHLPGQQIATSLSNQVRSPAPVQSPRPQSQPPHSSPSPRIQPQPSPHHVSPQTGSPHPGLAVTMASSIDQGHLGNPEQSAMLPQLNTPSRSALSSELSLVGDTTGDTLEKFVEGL
In assay [5] the target is T1, CREB-binding protein/Histone acetyltransferase p300 (Homo sapiens). The assay is described as follows: Inhibition of P300/CBP acetyl transferase activity in human Kasumi-1 cells assessed as reduction in acetylated H3K18 levels at 2.2 to 60 uM after 24 hrs in presence of SAHA by Western blot analysis. The assay is classed as cell-based.
The target in another assay is CREB-binding protein (Homo sapiens, UniProt Q92793). As to the kind of experiment: Inhibition of CBP (unknown origin) in presence of [3H]-acetyl-CoA.
CREB-binding protein, sequence (Q92793 whole entry): as the sequence (Q92793 whole entry, looked up) above
For a further assay, the system named is CCRF-CEM. The assay is described as follows: Antiproliferative activity against human CEM cells after 72 hrs by CellTiter-Glo assay.
The test system of a further assay is MOLT-3. As to the kind of experiment: Antiproliferative activity against human MOLT3 cells after 72 hrs by CellTiter-Glo assay. The note with it: MOLT-3, 72 h.
The next assay has as its system Jurkat. The assay is described as follows: Antiproliferative activity against human Jurkat cells after 72 hrs by CellTiter-Glo assay.
The subject of the next assay is MOLT-4. The assay is described as follows: Antiproliferative activity against human MOLT4 cells after 72 hrs by CellTiter-Glo assay. The following applies: MOLT-4, 72 h.
In another assay the test system is Kasumi 1. As to the kind of experiment: Antiproliferative activity against human Kasumi-1 cells after 72 hrs by CellTiter-Glo assay. The note with it: Kasumi 1, 72 h.
Another assay deals with THP-1. The assay is described as follows: Antiproliferative activity against human THP1 cells after 72 hrs by CellTiter-Glo assay. The note with it: THP-1, 72 h.
The test system of the next assay is RS4-11. The assay is described as follows: Antiproliferative activity against human RS4:11 cells after 72 hrs by CellTiter-Glo assay. The following applies: RS4-11, 72 h.
For the next assay, the system named is KOPN-8. As to the kind of experiment: Antiproliferative activity against human KOPN8 cells after 72 hrs by CellTiter-Glo assay. The following applies: KOPN-8, 72 h.
The test system of the next assay is K562. As to the kind of experiment: Antiproliferative activity against human K562 cells after 72 hrs by CellTiter-Glo assay. The note with it: K562, 72 h.
Assay [6] concerns the target T1, CREB-binding protein/Histone acetyltransferase p300 (Homo sapiens). As to the kind of experiment: Inhibition of P300/CBP acetyl transferase activity in human MV4-11 cells assessed as reduction in acetylated H3K18 levels after 24 hrs in presence of SAHA by Western blot analysis. In kind it is cell-based.
Assay [7] shares this target. As to the kind of experiment: Inhibition of P300/CBP acetyl transferase activity in human Kasumi-1 cells assessed as reduction in acetylated H3K18 levels after 24 hrs in presence of SAHA by Western blot analysis. In kind it is cell-based.
The test system of assay [8] is MV4-11. As to the kind of experiment: Cell cycle arrest in human MV4-11 cells assessed as accumulation at G1 phase up to 20 uM after 24 hrs by propidium iodide/RNase staining-based flow cytometric analysis. In kind it is functional.
Assay [9] has as its system MV4-11. As to the kind of experiment: Induction of apoptosis in human MV4-11 cells up to 20 uM after 48 hrs by Annexin V-FITC/propidium iodide staining-based flow cytometric analysis. In kind it is functional, cell-based.
Assay [10] has as its system MV4-11. The assay is described as follows: Induction of apoptosis in human MV4-11 cells assessed as apoptotic cells at 6.7 uM after 48 hrs by Annexin V-FITC/propidium iodide staining-based flow cytometric analysis. The assay is classed as functional.
Assay [11] relates to MV4-11. As to the kind of experiment: Induction of apoptosis in human MV4-11 cells assessed as increase in cleaved PARP levels after 24 hrs by Western blot analysis. In kind it is functional, cell-based.
For assay [12], the system named is MV4-11. As to the kind of experiment: Induction of apoptosis in human MV4-11 cells assessed as increase in cleaved caspase9 levels after 24 hrs by Western blot analysis. The assay is classed as functional, cell-based.
Assay [13] deals with MV4-11. The assay is described as follows: Induction of apoptosis in human MV4-11 cells assessed as increase in cleaved caspase3 levels after 24 hrs by Western blot analysis. In kind it is functional, cell-based.
The target in assay [14] is T1, CREB-binding protein/Histone acetyltransferase p300 (Homo sapiens). As to the kind of experiment: Inhibition of P300/CBP in human MV4-11 cells assessed as downregulation of MYC RNA expression at 20 uM after 12 hrs by RNA-seq analysis. In kind it is cell-based.
Assay [15] shares this target. The assay is described as follows: Inhibition of P300/CBP in human MV4-11 cells assessed as downregulation of CCNB1 RNA expression at 20 uM after 12 hrs by RNA-seq analysis. In kind it is cell-based.
Assay [16] has the same target. As to the kind of experiment: Inhibition of P300/CBP in human MV4-11 cells assessed as downregulation of CCNA2 RNA expression at 20 uM after 12 hrs by RNA-seq analysis. The assay is classed as cell-based.
Assay [17] has the same target. As to the kind of experiment: Inhibition of P300/CBP in human MV4-11 cells assessed as downregulation of HIF1A RNA expression at 20 uM after 12 hrs by RNA-seq analysis. In kind it is cell-based.
The target is the same in assay [18]. The assay is described as follows: Inhibition of P300/CBP in human MV4-11 cells assessed as downregulation of RRM2B RNA expression at 20 uM after 12 hrs by RNA-seq analysis. The assay is classed as cell-based.
Assay [19] shares this target. As to the kind of experiment: Inhibition of P300/CBP in human MV4-11 cells assessed as upregulation of GADD45B RNA expression at 20 uM after 12 hrs by RNA-seq analysis. The assay is classed as cell-based.
For assay [20] the target is unchanged. The assay is described as follows: Inhibition of P300/CBP in human MV4-11 cells assessed as upregulation of BAX RNA expression at 20 uM after 12 hrs by RNA-seq analysis. The assay is classed as cell-based.
Assay [21] has the same target. The assay is described as follows: Inhibition of P300/CBP in human MV4-11 cells assessed as upregulation of SESN2 RNA expression at 20 uM after 12 hrs by RNA-seq analysis. The assay is classed as cell-based.
The subject of assay [22] is MV4-11. The assay is described as follows: Antitumor activity against human MV4-11 cells xenografted in ip dosed nude mouse assessed as reduction in tumor growth rate administered every 2 days for 20 days. The assay is classed as functional, organism-based.
The subject of assay [23] is MV4-11. The assay is described as follows: Antitumor activity against human MV4-11 cells xenografted in nude mouse assessed as reduction in tumor cell proliferation at 25 to 50 mg/kg, ip administered every 2 days for 20 days by KI-67-staining based microscopic analysis. In kind it is functional, organism-based.
Assay [24] has as its system MV4-11. The assay is described as follows: Antitumor activity against human MV4-11 cells xenografted in ip dosed nude mouse assessed as increase in apoptotic cells administered every 2 days for 20 days by TUNEL assay. In kind it is functional, organism-based.
For assay [25], the target named is T1, CREB-binding protein/Histone acetyltransferase p300 (Homo sapiens). The assay is described as follows: Inhibition of P300/CBP in human MV4-11 cells assessed as change in UHRF1 mRNA expression at 20 uM after 12 hrs by RNA-seq analysis. In kind it is cell-based.
Assay [26] shares this target. As to the kind of experiment: Inhibition of P300/CBP in human MV4-11 cells assessed as change in DEPDC1 mRNA expression at 20 uM after 12 hrs by RNA-seq analysis. The assay is classed as cell-based.
Assay [27] shares this target. As to the kind of experiment: Inhibition of P300/CBP in human MV4-11 cells assessed as downregulation of MYC RNA expression at 20 uM after 12 hrs by RT-PCR analysis. The assay is classed as cell-based.
For assay [28] the target is unchanged. The assay is described as follows: Inhibition of P300/CBP in human MV4-11 cells assessed as downregulation of CCNB1 RNA expression at 20 uM after 12 hrs by RT-PCR analysis. The assay is classed as cell-based.
The target is the same in assay [29]. As to the kind of experiment: Inhibition of P300/CBP in human MV4-11 cells assessed as downregulation of CCNA2 RNA expression at 20 uM after 12 hrs by RT-PCR analysis. The assay is classed as cell-based.
The target is the same in assay [30]. As to the kind of experiment: Inhibition of P300/CBP in human MV4-11 cells assessed as downregulation of HIF1A RNA expression at 20 uM after 12 hrs by RT-PCR analysis. In kind it is cell-based.
Assay [31] shares this target. The assay is described as follows: Inhibition of P300/CBP in human MV4-11 cells assessed as downregulation of RRM2B RNA expression at 20 uM after 12 hrs by RT-PCR analysis. In kind it is cell-based.
Assay [32] has the same target. The assay is described as follows: Inhibition of P300/CBP in human MV4-11 cells assessed as upregulation of GADD45B RNA expression at 20 uM after 12 hrs by RT-PCR analysis. In kind it is cell-based.
The target is the same in assay [33]. As to the kind of experiment: Inhibition of P300/CBP in human MV4-11 cells assessed as upregulation of BAX RNA expression at 20 uM after 12 hrs by RT-PCR analysis. The assay is classed as cell-based.
For assay [34] the target is unchanged. As to the kind of experiment: Inhibition of P300/CBP in human MV4-11 cells assessed as upregulation of SESN2 RNA expression at 20 uM after 12 hrs by RT-PCR analysis. In kind it is cell-based.

pIC50: −log10 of the molar value. Active and inactive are the calls of the source. No cut-off for these calls is given here. Where only a bound is given, the exact number is not on record here.

Histone acetyltransferase p300, sequence (Q09472 whole entry): as the sequence (Q09472 whole entry, looked up) above

As for `CCCCCCCCCCCCCCCc1cccc(O)c1C(=O)O` [ANACARDIC ACID], in assay [1], the pIC50 was 4.19.
With `CN1C(=O)/C(=C/c2ccccc2)C(=O)NC1=S`, the results for the pIC50 (in assay [2]; in the assay with MV4-11 [3]) were 4.35 and below 4.00, respectively. The inhibition entry in [4] and in assay [5] was “inactive” each time.
For the molecule `CN1C(=O)/C(=C/c2c[nH]c3ccccc23)C(=O)NC1=S`, the negative-log IC50 (pIC50) in assay [2] is below 4.30.
Regarding `CN1C(=O)/C(=C/c2ccc(N3CCOCC3)o2)C(=O)NC1=S`, the pIC50 in assay [2] was below 4.30.
The same measure, in the same setting: in the case of `CN1C(=O)/C(=C/c2ccncc2)C(=O)NC1=S` it was below 4.30.
Take `Cc1cc(/C=C2\C(=O)NC(=S)N(C)C2=O)c(C)n1C`: the negative-log IC50 (pIC50) in [2] was 4.85.
As for `Cc1ccc(N2C(=O)/C(=C\C=C\c3ccco3)C(=O)NC2=S)cc1Cl`, the negative logarithm of the IC50 (pIC50) in [2] is 6.15; at CREB-binding protein it was 5.49; in the assay with CCRF-CEM, 5.42; in the assay with MOLT-3 it was 5.57; in the assay on Jurkat, 5.66; in the assay with MOLT-4, 5.46. Besides, the pIC50 in the assay with Kasumi 1 is 5.72; in the assay on MV4-11 [3], 5.96; in the assay on THP-1, 5.52; in the assay on RS4-11, 5.33; in the assay with KOPN-8 it was 5.23; in the assay on K562, 5.51. The inhibition entry in [6] and in [7] was “Dose-dependent effect” throughout. Also, the Activity result with MV4-11 [8] is “Dose-dependent effect”; with MV4-11 [9], “Dose-dependent effect”; in the assay on MV4-11 [10], “>=60%”; in the assay with MV4-11 [11], “Dose-dependent effect”; with MV4-11 [12], “Dose-dependent effect”; in the assay on MV4-11 [13], “Dose-dependent effect”. Besides, in the assay on MV4-11 [24], the Activity result was “Dose-dependent effect”. Further, the inhibition entry in [14], in [15], in assay [16], in assay [17], in assay [18] and in [19] was “Active” each time. Also, the inhibition result in assay [20], in assay [21], in assay [25], in [26], in assay [27] and in assay [28] was “Active” throughout. For the same molecule, the inhibition entry in [29], in assay [30], in assay [31], in assay [32], in assay [33] and in [34] was “Active” each time. Also, the TGI result in the assay on MV4-11 [22] is “Dose-dependent effect”. In addition, the result with MV4-11 [23] was Active.
